Read-outs that look alike come from different tables or passages of the source.
What was measured:
[1] = target: neuraminidase (NA) of influenza B/Minnesota/23/2015 (WT-D197) (Influenza B virus, UniProt A0A1S5RAG6); assay type: biochemical; conditions: three independent experiments, read-out: IC50 (nM), mean ± SD
[2] = target: neuraminidase (NA) of influenza B/England/598/2014 (WT-H273) (Influenza B virus, UniProt A0A1S5RAG6); assay type: biochemical
neuraminidase (NA) of influenza B/England/598/2014 (WT-H273), sequence (A0A1S5RAG6 entry or part of it, added parts left off): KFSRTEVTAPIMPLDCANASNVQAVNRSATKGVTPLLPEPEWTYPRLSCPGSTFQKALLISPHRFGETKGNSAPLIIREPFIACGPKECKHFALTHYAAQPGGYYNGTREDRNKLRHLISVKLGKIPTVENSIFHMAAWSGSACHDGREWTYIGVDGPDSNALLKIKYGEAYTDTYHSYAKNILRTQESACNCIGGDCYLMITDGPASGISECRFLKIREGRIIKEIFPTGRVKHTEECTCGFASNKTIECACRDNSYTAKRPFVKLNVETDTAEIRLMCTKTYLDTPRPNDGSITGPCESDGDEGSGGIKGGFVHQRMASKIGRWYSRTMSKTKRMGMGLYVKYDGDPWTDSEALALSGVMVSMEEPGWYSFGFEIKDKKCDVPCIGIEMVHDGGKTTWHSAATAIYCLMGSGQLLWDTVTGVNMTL

neuraminidase (NA) of influenza B/Minnesota/23/2015 (WT-D197), sequence (A0A1S5RAG6 entry or part of it, added parts left off): as above

`CCC(CC)[C@H](NC(C)=O)[C@@H]1[C@H](O)[C@@H](C(=O)O)C[C@H]1N=C(N)N` [Peramivir, peramivir] showed an IC50 [1] of 1 ± 0.1 nM, an IC50 ([2]; WT-H273 virus, three independent experiments, read-out: IC50 (nM), mean ± SD) of 1 ± 0.05 nM and an IC50 ([2]; approximate value given in discussion for wild-type influenza B viruses, read-out: IC50 for wild-type influenza B viruses) of ~1 nM.

Source: publication PMC6201084 (Antimicrobial Agents and Chemotherapy, 2018)
